For one experiment, the target named is T1, Interstitial collagenase (Homo sapiens, UniProt P03956).
T1 sequence (P03956 whole entry): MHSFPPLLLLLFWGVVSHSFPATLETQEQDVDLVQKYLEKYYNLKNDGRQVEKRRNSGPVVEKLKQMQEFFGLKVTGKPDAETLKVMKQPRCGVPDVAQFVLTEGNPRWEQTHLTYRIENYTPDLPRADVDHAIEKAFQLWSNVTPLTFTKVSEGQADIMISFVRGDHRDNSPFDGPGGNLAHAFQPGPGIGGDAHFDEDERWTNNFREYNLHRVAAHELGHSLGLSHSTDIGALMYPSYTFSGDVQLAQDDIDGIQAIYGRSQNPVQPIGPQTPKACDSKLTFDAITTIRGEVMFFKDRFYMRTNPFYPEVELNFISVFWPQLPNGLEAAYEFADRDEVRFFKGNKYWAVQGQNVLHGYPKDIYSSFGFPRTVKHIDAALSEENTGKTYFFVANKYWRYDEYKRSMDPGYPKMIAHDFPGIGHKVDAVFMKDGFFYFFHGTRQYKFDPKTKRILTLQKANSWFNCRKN
Nature of the experiment: Inhibition of MMP-1 (Matrix metalloprotease-1).

The next experiment has as its target Stromelysin-1 (Homo sapiens, UniProt P08254). Nature of the experiment: Inhibition of MMP-3 (Matrix metalloprotease-3).
Experiment [1] addresses Matrix metalloproteinase-9 (Homo sapiens, UniProt P14780). Description: Inhibition of MMP-9 (Matrix metalloprotease-9).
Another experiment is filed under the species Homo sapiens. Description: In vitro inhibition for TNF-alpha production from LPS-stimulated human whole blood. In kind it is functional.

Sequence of Stromelysin-1 (P08254 whole entry): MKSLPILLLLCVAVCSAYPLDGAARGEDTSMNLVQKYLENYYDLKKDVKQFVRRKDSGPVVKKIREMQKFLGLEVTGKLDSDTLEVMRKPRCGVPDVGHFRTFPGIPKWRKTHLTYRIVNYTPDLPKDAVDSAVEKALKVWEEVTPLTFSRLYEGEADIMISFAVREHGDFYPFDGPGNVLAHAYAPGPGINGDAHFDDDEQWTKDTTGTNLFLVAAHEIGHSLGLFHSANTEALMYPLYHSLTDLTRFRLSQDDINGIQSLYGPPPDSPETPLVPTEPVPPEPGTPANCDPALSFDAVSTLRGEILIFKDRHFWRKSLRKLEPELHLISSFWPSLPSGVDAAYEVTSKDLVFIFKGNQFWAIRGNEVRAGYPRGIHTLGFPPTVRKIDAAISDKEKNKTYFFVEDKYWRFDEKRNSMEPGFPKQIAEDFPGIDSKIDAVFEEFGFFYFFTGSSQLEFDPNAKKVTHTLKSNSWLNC
Sequence of Matrix metalloproteinase-9 (P14780 whole entry): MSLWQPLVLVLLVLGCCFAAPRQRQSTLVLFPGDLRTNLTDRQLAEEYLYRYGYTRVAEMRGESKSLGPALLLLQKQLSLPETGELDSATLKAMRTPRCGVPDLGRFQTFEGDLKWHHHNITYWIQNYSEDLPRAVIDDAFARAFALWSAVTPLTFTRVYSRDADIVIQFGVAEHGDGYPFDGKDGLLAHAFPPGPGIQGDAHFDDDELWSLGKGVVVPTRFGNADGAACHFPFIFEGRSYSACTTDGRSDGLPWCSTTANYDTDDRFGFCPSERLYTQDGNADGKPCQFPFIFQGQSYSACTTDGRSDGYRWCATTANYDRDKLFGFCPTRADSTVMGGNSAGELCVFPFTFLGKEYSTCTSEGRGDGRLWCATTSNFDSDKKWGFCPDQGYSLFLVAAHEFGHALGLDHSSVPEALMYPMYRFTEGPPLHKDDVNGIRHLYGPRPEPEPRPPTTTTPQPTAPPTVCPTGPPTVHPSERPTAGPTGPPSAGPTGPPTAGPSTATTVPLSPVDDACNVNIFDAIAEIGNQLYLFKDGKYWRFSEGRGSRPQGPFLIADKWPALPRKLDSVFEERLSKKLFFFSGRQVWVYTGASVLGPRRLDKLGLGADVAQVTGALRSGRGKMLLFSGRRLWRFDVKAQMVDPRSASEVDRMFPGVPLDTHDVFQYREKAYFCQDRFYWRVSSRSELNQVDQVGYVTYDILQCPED

What is called Ki is the equilibrium dissociation constant of an inhibitor or competing ligand from its target. A low value points to a stronger hold on the target. As a reminder, the IC50 is the concentration needed to halve the response being measured. Lower therefore signals inhibition by little substance. For the molecule `CNC(=O)[C@@H](Cc1ccc(OC)cc1)NC(=O)[C@H](CC(C)C)[C@H](C)C(=O)NO`, the Ki at Interstitial collagenase was determined as 0.87 nM; at Stromelysin-1 it was 1.93 nM; in experiment [1], 0.13 nM. For the same molecule, the IC50 in the experiment listed under Homo sapiens was found to be 1800 nM.
For `CNC(=O)[C@@H]1Cc2ccc(cc2)OCCC[C@H](C(=O)NO)[C@@H](CC(C)C)C(=O)N1`, in that order: 1.2 nM, 32.7 nM, 1.8 nM and 1200 nM.
As to `CNC(=O)[C@@H]1CCCCNC(=O)CO[C@H](C(=O)NO)[C@@H](CC(C)C)C(=O)N1`, the Ki worked out at 2.8 nM at Interstitial collagenase, 24.1 nM on Stromelysin-1 and 2.6 nM in experiment [1]. In the experiment filed under Homo sapiens, this molecule showed an IC50 of 6500 nM.

Values taken from ChEMBL document CHEMBL1131224, “Design and synthesis of cyclic inhibitors of matrix metalloproteinases and TNF-alpha production” (J Med Chem, 1998).
